Data published in ChEMBL document CHEMBL4014321, “Discovery of Pyrazolo[1,5-a]pyrimidine B-Cell Lymphoma 6 (BCL6) Binders and Optimization to High Affinity Macrocyclic Inhibitors” (J Med Chem, 2017).
pIC50, pKd: −log10 of the molar value.

tested on: TMD8; test: Antiproliferative activity against BCL6 dependent human TMD8 cells after 3 days by CellTiter-Glo assay; assay type: functional; settings: TMD8, 72 h

SMILES | GI50
COc1cccc(CN2C(=O)CCc3cc4cc(c32)OC/C=C/CO[C@H]2C[C@@H](CO)N(C2)c2cc(n3ncc(Cl)c3n2)N4)c1 | 20 µM
O=C(O)CCN1C(=O)/C(=C2/C(=O)Nc3ccc(Cl)cc32)SC1=S | 10 µM
N#Cc1cnn2c3cc(nc12)N1C[C@H](C[C@H]1CO)OC/C=C/COc1cc(cc2c1NC(=O)CC2)N3 | 7.94 µM

tested on: OCI-Ly1; test: Antiproliferative activity against BCL6 dependent human OCI-LY1 cells after 3 days by CellTiter-Glo assay; assay type: functional; settings: OCI-Ly1, 72 h

SMILES | GI50
COc1cccc(CN2C(=O)CCc3cc4cc(c32)OC/C=C/CO[C@H]2C[C@@H](CO)N(C2)c2cc(n3ncc(Cl)c3n2)N4)c1 | 6.31 µM
O=C(O)CCN1C(=O)/C(=C2/C(=O)Nc3ccc(Cl)cc32)SC1=S | 20 µM
N#Cc1cnn2c3cc(nc12)N1C[C@H](C[C@H]1CO)OC/C=C/COc1cc(cc2c1NC(=O)CC2)N3 | 10 µM

tested on: not listed separately; test: Octanol-buffer partition co-efficient, log D of the compound at pH 7.4 after 30 mins by shake flask method; assay type: physicochemical; settings: not given

SMILES | logD at 0.5 h
N#Cc1cnn2c3cc(nc12)N1C[C@H](C[C@H]1CO)OC/C=C/COc1cc(cc2c1NC(=O)CC2)N3 | 2.2

tested on: KARPAS-422; test: Antiproliferative activity against BCL6 […] human KARPAS422 cells after 3 days by CellTiter-Glo assay; assay type: functional; settings: KARPAS-422, 72 h

SMILES | GI50
COc1cccc(CN2C(=O)CCc3cc4cc(c32)OC/C=C/CO[C@H]2C[C@@H](CO)N(C2)c2cc(n3ncc(Cl)c3n2)N4)c1 | 25.1 µM
O=C(O)CCN1C(=O)/C(=C2/C(=O)Nc3ccc(Cl)cc32)SC1=S | 12.6 µM
N#Cc1cnn2c3cc(nc12)N1C[C@H](C[C@H]1CO)OC/C=C/COc1cc(cc2c1NC(=O)CC2)N3 | 7.94 µM

tested on: U2932; test: Antiproliferative activity against BCL6 dependent human U2932 cells after 3 days by CellTiter-Glo assay; assay type: functional; settings: U2932, 72 h

SMILES | GI50
COc1cccc(CN2C(=O)CCc3cc4cc(c32)OC/C=C/CO[C@H]2C[C@@H](CO)N(C2)c2cc(n3ncc(Cl)c3n2)N4)c1 | 15.8 µM
O=C(O)CCN1C(=O)/C(=C2/C(=O)Nc3ccc(Cl)cc32)SC1=S | 12.6 µM
N#Cc1cnn2c3cc(nc12)N1C[C@H](C[C@H]1CO)OC/C=C/COc1cc(cc2c1NC(=O)CC2)N3 | 6.31 µM

tested on: OCI-LY19; test: Antiproliferative activity against BCL6 independent human OCI-LY19 cells after 3 days by CellTiter-Glo assay; assay type: functional; settings: OCI-LY19, 72 h

SMILES | GI50
COc1cccc(CN2C(=O)CCc3cc4cc(c32)OC/C=C/CO[C@H]2C[C@@H](CO)N(C2)c2cc(n3ncc(Cl)c3n2)N4)c1 | 10 µM
O=C(O)CCN1C(=O)/C(=C2/C(=O)Nc3ccc(Cl)cc32)SC1=S | 10 µM
N#Cc1cnn2c3cc(nc12)N1C[C@H](C[C@H]1CO)OC/C=C/COc1cc(cc2c1NC(=O)CC2)N3 | 6.31 µM

tested on: OCI-Ly10; test: Antiproliferative activity against BCL6 dependent human OCI-LY10 cells after 3 days by CellTiter-Glo assay; assay type: functional; settings: OCI-Ly10, 72 h

SMILES | GI50
COc1cccc(CN2C(=O)CCc3cc4cc(c32)OC/C=C/CO[C@H]2C[C@@H](CO)N(C2)c2cc(n3ncc(Cl)c3n2)N4)c1 | 6.31 µM
O=C(O)CCN1C(=O)/C(=C2/C(=O)Nc3ccc(Cl)cc32)SC1=S | 12.6 µM
N#Cc1cnn2c3cc(nc12)N1C[C@H](C[C@H]1CO)OC/C=C/COc1cc(cc2c1NC(=O)CC2)N3 | 5.01 µM

target: T1, B-cell lymphoma 6 protein (Homo sapiens, UniProt P41182, C67R/C84N/C8Q); test: Binding affinity to N-terminal His6-tagged human BCL6 BTB domain C8Q/C67R/C84N mutant expressed in Escherichia coli BL21 (DE3) by surface plasmon resonance spectrometry; settings: not given

SMILES | pKd
N#Cc1cnn2c3cc(nc12)N1C[C@H](C[C@H]1CO)OC/C=C/COc1cc(cc2c1NC(=O)CC2)N3 | 8.19

tested on: OCI-Ly3; test: Antiproliferative activity against BCL6 dependent human OCI-LY3 cells after 3 days by CellTiter-Glo assay; assay type: functional; settings: OCI-Ly3, 72 h

SMILES | GI50
COc1cccc(CN2C(=O)CCc3cc4cc(c32)OC/C=C/CO[C@H]2C[C@@H](CO)N(C2)c2cc(n3ncc(Cl)c3n2)N4)c1 | > 31.6 µM
O=C(O)CCN1C(=O)/C(=C2/C(=O)Nc3ccc(Cl)cc32)SC1=S | 20 µM
N#Cc1cnn2c3cc(nc12)N1C[C@H](C[C@H]1CO)OC/C=C/COc1cc(cc2c1NC(=O)CC2)N3 | 3.98 µM

tested on: SUD4; test: Antiproliferative activity against BCL6 dependent human SUDHL4 cells after 3 days by CellTiter-Glo assay; assay type: functional; settings: SU-DHL-4, 72 h

SMILES | GI50
COc1cccc(CN2C(=O)CCc3cc4cc(c32)OC/C=C/CO[C@H]2C[C@@H](CO)N(C2)c2cc(n3ncc(Cl)c3n2)N4)c1 | 31.6 µM
O=C(O)CCN1C(=O)/C(=C2/C(=O)Nc3ccc(Cl)cc32)SC1=S | 10 µM
N#Cc1cnn2c3cc(nc12)N1C[C@H](C[C@H]1CO)OC/C=C/COc1cc(cc2c1NC(=O)CC2)N3 | 7.94 µM

target: T1, B-cell lymphoma 6 protein; test: Inhibition of SMRT2 H1426W mutant peptide binding to N-terminal His6-tagged human BCL6 BTB domain C8Q/C67R/C84N mutant expressed in Escherichia coli BL21 (DE3) preincubated for 30 mins followed by SMRT2 H1426W mutant peptide addition measured after 60 mins by time-resolved fluorescence resonance energy transfer assay; settings: not given

SMILES | pIC50
N#Cc1cnn2c3cc(nc12)N1C[C@H](C[C@H]1CO)OC/C=C/COc1cc(cc2c1NC(=O)CC2)N3 | 8.54

organism: Homo sapiens; test: Selectivity ratio of IC50 for human CK2 protein to IC50 for N-terminal His6-tagged human BCL6 BTB domain C8Q/C67R/C84N mutant; settings: not given

SMILES | Ratio IC50
N#Cc1cnn2c3cc(nc12)N1C[C@H](C[C@H]1CO)OC/C=C/COc1cc(cc2c1NC(=O)CC2)N3 | 220

tested on: AMO1; test: Antiproliferative activity against BCL6 dependent human AMO1 cells after 3 days by CellTiter-Glo assay; assay type: functional; settings: AMO1, 72 h

SMILES | GI50
COc1cccc(CN2C(=O)CCc3cc4cc(c32)OC/C=C/CO[C@H]2C[C@@H](CO)N(C2)c2cc(n3ncc(Cl)c3n2)N4)c1 | 15.8 µM
O=C(O)CCN1C(=O)/C(=C2/C(=O)Nc3ccc(Cl)cc32)SC1=S | 20 µM
N#Cc1cnn2c3cc(nc12)N1C[C@H](C[C@H]1CO)OC/C=C/COc1cc(cc2c1NC(=O)CC2)N3 | 15.8 µM

organism: Homo sapiens; test: Inhibition of human CK2 protein at 1 uM relative to control; settings: not given

SMILES | inhibition
N#Cc1cnn2c3cc(nc12)N1C[C@H](C[C@H]1CO)OC/C=C/COc1cc(cc2c1NC(=O)CC2)N3 | > 60%

tested on: not listed separately; test: Inhibition of human CK2 protein; settings: not given

SMILES | pIC50
COc1cccc(CN2C(=O)CCc3cc4cc(c32)OC/C=C/CO[C@H]2C[C@@H](CO)N(C2)c2cc(n3ncc(Cl)c3n2)N4)c1 | < 5.00
O=C(O)CCN1C(=O)/C(=C2/C(=O)Nc3ccc(Cl)cc32)SC1=S | 6.16

tested on: SU-DHL-2; test: Antiproliferative activity against BCL6 dependent human SU-DHL-2 cells after 3 days by CellTiter-Glo assay; assay type: functional; settings: SU-DHL-2, 72 h

SMILES | GI50
COc1cccc(CN2C(=O)CCc3cc4cc(c32)OC/C=C/CO[C@H]2C[C@@H](CO)N(C2)c2cc(n3ncc(Cl)c3n2)N4)c1 | 6.31 µM
O=C(O)CCN1C(=O)/C(=C2/C(=O)Nc3ccc(Cl)cc32)SC1=S | 12.6 µM
N#Cc1cnn2c3cc(nc12)N1C[C@H](C[C@H]1CO)OC/C=C/COc1cc(cc2c1NC(=O)CC2)N3 | 3.16 µM
